{"source": "patent US12643859B2", "about": "“Pyridyl oxycarboxylic acid oxime derivative and preparation method therefor, weeding composition and application thereof” (Qingdao Kingagroot Chemical Compound Co., Ltd., priority 2018, dated 2026)"}
{"tested_on": "Monocotyledonous and dicotyledonous weed seeds and main crop seeds", "assay": "Post-emergence test experiment (Table 3, 1000 g a.i./ha)", "type": "in vivo", "conditions": "Digitaria sanguinalis, 3 weeks in greenhouse, fresh weight inhibition", "procedure": "(§1) The above described growth inhibition rate is fresh weight inhibition rate.\n(§2) Post-emergence test experiment: Monocotyledonous and dicotyledonous weed seeds and main crop seeds (i. e. wheat, corn, rice, soybean, cotton, oilseed, millet and sorghum.) were put into a plastic pot loaded with soil. Then covered with 0.5-2 cm soil, the seeds were allowed to grow in good greenhouse environment. The test plants were treated at 2-3 leaf stage 2 weeks after sowing. The test compounds of the invention were dissolved with acetone respectively, then added with tween-80, and using 1.5 liters per hectare of an emulsible concentrate of methyl oleate as a synergist, and diluted by certain amount of water to certain concentration. The solution was sprayed to the plants with a sprayer. Then the plants were cultured for 3 weeks in the greenhouse, and the experiment result of weed controlling effect was listed in tables 3-4."}
{"smiles": "CC(Oc1nc(F)c(Cl)c(N)c1Cl)C(=O)ON=C(Cc1ccccc1)c1ccccc1N", "note": "(centres unmarked) [Compound 93]", "Activity level (growth inhibition rate) Digitaria sanguinalis": "5 (Level 5: the growth inhibition rate is greater than 85%)"}
{"smiles": "CSC(=O)C(=NOC(=O)C(C)Oc1nc(F)c(Cl)c(N)c1Cl)C(=O)NCc1ccc(Cl)cc1", "note": "(centres unmarked) [Compound 102]", "Activity level (growth inhibition rate) Digitaria sanguinalis": "5 (Level 5: the growth inhibition rate is greater than 85%)"}
{"smiles": "CC(CCCl)=NOC(=O)C(C)Oc1nc(C)c(C)c(N)c1C", "note": "(centres unmarked) [Compound 19]", "Activity level (growth inhibition rate) Digitaria sanguinalis": "5 (Level 5: the growth inhibition rate is greater than 85%)"}
{"smiles": "CC(Oc1nc(F)c(Cl)c(N)c1Cl)C(=O)ON=C1CCCCC1", "note": "(centres unmarked) [Compound 116]", "Activity level (growth inhibition rate) Digitaria sanguinalis": "5 (Level 5: the growth inhibition rate is greater than 85%)"}
{"smiles": "CC(Oc1nc(F)c(Cl)c(N)c1Cl)C(=O)ON=C(c1ccccc1)c1ccc(C(F)(F)F)cc1", "note": "(centres unmarked) [Compound 81]", "Activity level (growth inhibition rate) Digitaria sanguinalis": "5 (Level 5: the growth inhibition rate is greater than 85%)"}
{"tested_on": "Monocotyledonous and dicotyledonous weed seeds and main crop seeds", "assay": "Post-emergence test experiment (Table 3, 1000 g a.i./ha)", "type": "in vivo", "conditions": "Echinochloa crusgalli, 3 weeks in greenhouse, fresh weight inhibition", "procedure": "as §1, §2"}
{"smiles": "CC(Oc1nc(F)c(Cl)c(N)c1Cl)C(=O)ON=C(Cc1ccccc1)c1ccccc1N", "note": "(centres unmarked) [Compound 93]", "Activity level (growth inhibition rate) Echinochloa crusgalli": "5 (Level 5: the growth inhibition rate is greater than 85%)"}
{"smiles": "CSC(=O)C(=NOC(=O)C(C)Oc1nc(F)c(Cl)c(N)c1Cl)C(=O)NCc1ccc(Cl)cc1", "note": "(centres unmarked) [Compound 102]", "Activity level (growth inhibition rate) Echinochloa crusgalli": "5 (Level 5: the growth inhibition rate is greater than 85%)"}
{"smiles": "CC(CCCl)=NOC(=O)C(C)Oc1nc(C)c(C)c(N)c1C", "note": "(centres unmarked) [Compound 19]", "Activity level (growth inhibition rate) Echinochloa crusgalli": "5 (Level 5: the growth inhibition rate is greater than 85%)"}
{"smiles": "CC(Oc1nc(F)c(Cl)c(N)c1Cl)C(=O)ON=C1CCCCC1", "note": "(centres unmarked) [Compound 116]", "Activity level (growth inhibition rate) Echinochloa crusgalli": "5 (Level 5: the growth inhibition rate is greater than 85%)"}
{"smiles": "CC(Oc1nc(F)c(Cl)c(N)c1Cl)C(=O)ON=C(c1ccccc1)c1ccc(C(F)(F)F)cc1", "note": "(centres unmarked) [Compound 81]", "Activity level (growth inhibition rate) Echinochloa crusgalli": "5 (Level 5: the growth inhibition rate is greater than 85%)"}
{"tested_on": "Monocotyledonous and dicotyledonous weed seeds and main crop seeds", "assay": "Post-emergence test experiment (Table 3, 1000 g a.i./ha)", "type": "in vivo", "conditions": "Galium spurium, 3 weeks in greenhouse, fresh weight inhibition", "procedure": "as §1, §2"}
{"smiles": "CC(Oc1nc(F)c(Cl)c(N)c1Cl)C(=O)ON=C(Cc1ccccc1)c1ccccc1N", "note": "(centres unmarked) [Compound 93]", "Activity level (growth inhibition rate) Galium spurium": "5 (Level 5: the growth inhibition rate is greater than 85%)"}
{"smiles": "CSC(=O)C(=NOC(=O)C(C)Oc1nc(F)c(Cl)c(N)c1Cl)C(=O)NCc1ccc(Cl)cc1", "note": "(centres unmarked) [Compound 102]", "Activity level (growth inhibition rate) Galium spurium": "5 (Level 5: the growth inhibition rate is greater than 85%)"}
{"smiles": "CC(CCCl)=NOC(=O)C(C)Oc1nc(C)c(C)c(N)c1C", "note": "(centres unmarked) [Compound 19]", "Activity level (growth inhibition rate) Galium spurium": "5 (Level 5: the growth inhibition rate is greater than 85%)"}
{"smiles": "CCCC(C)=NOC(=O)C(Oc1nc(F)c(Cl)c(N)c1Cl)C1CC1", "note": "(centres unmarked) [Compound 28]", "Activity level (growth inhibition rate) Galium spurium": "5 (Level 5: the growth inhibition rate is greater than 85%)"}
{"smiles": "CC(Oc1nc(F)c(Cl)c(N)c1Cl)C(=O)ON=C1CCCCC1", "note": "(centres unmarked) [Compound 116]", "Activity level (growth inhibition rate) Galium spurium": "5 (Level 5: the growth inhibition rate is greater than 85%)"}
{"smiles": "CC(Oc1nc(F)c(Cl)c(N)c1Cl)C(=O)ON=C(c1ccccc1)c1ccc(C(F)(F)F)cc1", "note": "(centres unmarked) [Compound 81]", "Activity level (growth inhibition rate) Galium spurium": "5 (Level 5: the growth inhibition rate is greater than 85%)"}
{"tested_on": "Monocotyledonous and dicotyledonous weed seeds and main crop seeds", "assay": "Post-emergence test experiment (Table 3, 1000 g a.i./ha)", "type": "in vivo", "conditions": "Leptochloa chinensis, 3 weeks in greenhouse, fresh weight inhibition", "procedure": "as §1, §2"}
{"smiles": "CC(Oc1nc(F)c(Cl)c(N)c1Cl)C(=O)ON=C(Cc1ccccc1)c1ccccc1N", "note": "(centres unmarked) [Compound 93]", "Activity level (growth inhibition rate) Leptochloa chinensis": "5 (Level 5: the growth inhibition rate is greater than 85%)"}
{"smiles": "CSC(=O)C(=NOC(=O)C(C)Oc1nc(F)c(Cl)c(N)c1Cl)C(=O)NCc1ccc(Cl)cc1", "note": "(centres unmarked) [Compound 102]", "Activity level (growth inhibition rate) Leptochloa chinensis": "5 (Level 5: the growth inhibition rate is greater than 85%)"}
{"smiles": "CC(CCCl)=NOC(=O)C(C)Oc1nc(C)c(C)c(N)c1C", "note": "(centres unmarked) [Compound 19]", "Activity level (growth inhibition rate) Leptochloa chinensis": "5 (Level 5: the growth inhibition rate is greater than 85%)"}
{"smiles": "CC(Oc1nc(F)c(Cl)c(N)c1Cl)C(=O)ON=C1CCCCC1", "note": "(centres unmarked) [Compound 116]", "Activity level (growth inhibition rate) Leptochloa chinensis": "5 (Level 5: the growth inhibition rate is greater than 85%)"}
{"smiles": "CC(Oc1nc(F)c(Cl)c(N)c1Cl)C(=O)ON=C(c1ccccc1)c1ccc(C(F)(F)F)cc1", "note": "(centres unmarked) [Compound 81]", "Activity level (growth inhibition rate) Leptochloa chinensis": "5 (Level 5: the growth inhibition rate is greater than 85%)"}
{"tested_on": "Monocotyledonous and dicotyledonous weed seeds and main crop seeds", "assay": "Post-emergence test experiment (Table 3, 1000 g a.i./ha)", "type": "in vivo", "conditions": "Monochoria Vaginalis, 3 weeks in greenhouse, fresh weight inhibition", "procedure": "as §1, §2"}
{"smiles": "CC(Oc1nc(F)c(Cl)c(N)c1Cl)C(=O)ON=C(Cc1ccccc1)c1ccccc1N", "note": "(centres unmarked) [Compound 93]", "Activity level (growth inhibition rate) Monochoria Vaginalis": "5 (Level 5: the growth inhibition rate is greater than 85%)"}
{"smiles": "CSC(=O)C(=NOC(=O)C(C)Oc1nc(F)c(Cl)c(N)c1Cl)C(=O)NCc1ccc(Cl)cc1", "note": "(centres unmarked) [Compound 102]", "Activity level (growth inhibition rate) Monochoria Vaginalis": "5 (Level 5: the growth inhibition rate is greater than 85%)"}
{"smiles": "CC(CCCl)=NOC(=O)C(C)Oc1nc(C)c(C)c(N)c1C", "note": "(centres unmarked) [Compound 19]", "Activity level (growth inhibition rate) Monochoria Vaginalis": "5 (Level 5: the growth inhibition rate is greater than 85%)"}
{"smiles": "CCCC(C)=NOC(=O)C(Oc1nc(F)c(Cl)c(N)c1Cl)C1CC1", "note": "(centres unmarked) [Compound 28]", "Activity level (growth inhibition rate) Monochoria Vaginalis": "5 (Level 5: the growth inhibition rate is greater than 85%)"}
{"smiles": "CC(Oc1nc(F)c(Cl)c(N)c1Cl)C(=O)ON=C1CCCCC1", "note": "(centres unmarked) [Compound 116]", "Activity level (growth inhibition rate) Monochoria Vaginalis": "5 (Level 5: the growth inhibition rate is greater than 85%)"}
{"smiles": "CC(Oc1nc(F)c(Cl)c(N)c1Cl)C(=O)ON=C(c1ccccc1)c1ccc(C(F)(F)F)cc1", "note": "(centres unmarked) [Compound 81]", "Activity level (growth inhibition rate) Monochoria Vaginalis": "5 (Level 5: the growth inhibition rate is greater than 85%)"}
{"tested_on": "Monocotyledonous and dicotyledonous weed seeds and main crop seeds", "assay": "Post-emergence test experiment (Table 3, 1000 g a.i./ha)", "type": "in vivo", "conditions": "Murdannia triquetra, 3 weeks in greenhouse, fresh weight inhibition", "procedure": "as §1, §2"}
{"smiles": "CC(Oc1nc(F)c(Cl)c(N)c1Cl)C(=O)ON=C(Cc1ccccc1)c1ccccc1N", "note": "(centres unmarked) [Compound 93]", "Activity level (growth inhibition rate) Murdannia triquetra": "5 (Level 5: the growth inhibition rate is greater than 85%)"}
{"smiles": "CSC(=O)C(=NOC(=O)C(C)Oc1nc(F)c(Cl)c(N)c1Cl)C(=O)NCc1ccc(Cl)cc1", "note": "(centres unmarked) [Compound 102]", "Activity level (growth inhibition rate) Murdannia triquetra": "5 (Level 5: the growth inhibition rate is greater than 85%)"}
{"smiles": "CC(CCCl)=NOC(=O)C(C)Oc1nc(C)c(C)c(N)c1C", "note": "(centres unmarked) [Compound 19]", "Activity level (growth inhibition rate) Murdannia triquetra": "5 (Level 5: the growth inhibition rate is greater than 85%)"}
{"smiles": "CCCC(C)=NOC(=O)C(Oc1nc(F)c(Cl)c(N)c1Cl)C1CC1", "note": "(centres unmarked) [Compound 28]", "Activity level (growth inhibition rate) Murdannia triquetra": "5 (Level 5: the growth inhibition rate is greater than 85%)"}
{"smiles": "CC(Oc1nc(F)c(Cl)c(N)c1Cl)C(=O)ON=C1CCCCC1", "note": "(centres unmarked) [Compound 116]", "Activity level (growth inhibition rate) Murdannia triquetra": "5 (Level 5: the growth inhibition rate is greater than 85%)"}
{"smiles": "CC(Oc1nc(F)c(Cl)c(N)c1Cl)C(=O)ON=C(c1ccccc1)c1ccc(C(F)(F)F)cc1", "note": "(centres unmarked) [Compound 81]", "Activity level (growth inhibition rate) Murdannia triquetra": "5 (Level 5: the growth inhibition rate is greater than 85%)"}
{"tested_on": "Monocotyledonous and dicotyledonous weed seeds and main crop seeds", "assay": "Post-emergence test experiment (Table 3, 1000 g a.i./ha)", "type": "in vivo", "conditions": "Setaria viridis, 3 weeks in greenhouse, fresh weight inhibition", "procedure": "as §1, §2"}
{"smiles": "CC(Oc1nc(F)c(Cl)c(N)c1Cl)C(=O)ON=C(Cc1ccccc1)c1ccccc1N", "note": "(centres unmarked) [Compound 93]", "Activity level (growth inhibition rate) Setaria viridis": "5 (Level 5: the growth inhibition rate is greater than 85%)"}
{"smiles": "CSC(=O)C(=NOC(=O)C(C)Oc1nc(F)c(Cl)c(N)c1Cl)C(=O)NCc1ccc(Cl)cc1", "note": "(centres unmarked) [Compound 102]", "Activity level (growth inhibition rate) Setaria viridis": "5 (Level 5: the growth inhibition rate is greater than 85%)"}
{"smiles": "CC(CCCl)=NOC(=O)C(C)Oc1nc(C)c(C)c(N)c1C", "note": "(centres unmarked) [Compound 19]", "Activity level (growth inhibition rate) Setaria viridis": "5 (Level 5: the growth inhibition rate is greater than 85%)"}
{"smiles": "CC(Oc1nc(F)c(Cl)c(N)c1Cl)C(=O)ON=C1CCCCC1", "note": "(centres unmarked) [Compound 116]", "Activity level (growth inhibition rate) Setaria viridis": "5 (Level 5: the growth inhibition rate is greater than 85%)"}
{"smiles": "CC(Oc1nc(F)c(Cl)c(N)c1Cl)C(=O)ON=C(c1ccccc1)c1ccc(C(F)(F)F)cc1", "note": "(centres unmarked) [Compound 81]", "Activity level (growth inhibition rate) Setaria viridis": "5 (Level 5: the growth inhibition rate is greater than 85%)"}
